Source: patent US20090035345A1, “Nuclear Receptors Agonists for Treatment of Atherosclerosis and/or Related Cardiovascular Disease” (ACADEMISCH MEDISCH CENTRUM, BUREAU, priority 2005, published 2009)
Entries after “also recorded” stand apart in the source; their conditions may differ.

Experiments:
[1] = tested on: saphenous vein smooth muscle cells; test: Cyclic stretch-induced DNA synthesis ([3H]-thymidine incorporation) in venous SMCs; assay type: cell-based, human
Description: To study stretch-induced responses, smooth muscle cells were seeded in 6-well plates containing collagen Icoated flexible membranes (BioFlex® culture plates, Dunn Labortechnik GmbH, Asbach, Germany) and were stretched in the Flexercell FX3000 apparatus (Dunn Labortechnik) for 1, 2, 4, 6, or 24 h at 10% stretch at 0.5 Hz or served as control (without stretch). Silicone-based lubricant was applied to prevent friction between the membrane and loading post.
Smooth muscle cells were seeded in 6-well stretch plates and when wells were confluent, smooth muscle cells were made quiescent for 16 h in medium containing 0.5% (v/v) FBS.
The plates were transferred into the Loading Station™ and stretched for 24 h. Control plates, without stretch, were cultured under identical conditions. Thereafter, cells were labeled for 4 h with 0.5 microCi/mL [methyl-^3H]-thymidine (Amersham Biosciences).
Incorporated radioactivity was precipitated for 30 min at 4° C. with 10% (wt/v) trichloroacetic acid, washed twice with 5% (wt/v) trichloroacetic acid and dissolved in 0.5N NaOH. [^3H]-thymidine was measured by liquid scintillation counting.
When cells were infected with mock- or TR3-containing adenovirus (3×10^8 plaque-forming units) for 2 h, the cells were allowed to recover for 24 h in complete medium before they were made quiescent. Agonist treatment (6-MP) was initiated 1 h prior to stretch with 0, 1, 10, 25 microM C-DIM (stock at 40 mM in DMSO).
The following small interfering RNA (siRNA) sequences were used: TR3 siRNA, 5′-CAG UCC AGC CAU GCU CCU C dTdT-3′, and mutated control siRNA, 5′-CAG ACG AGC CUU GCU CGU C dTdT-3′ (Ambion Inc., UK). Per Flexerplate-well 1 μg of siRNA was transfected into 5×10^5 SMCs using Nucleofector reagent for SMCs (Amaxa GmbH, Cologne, Germany) as per the manufacturer's recommendations and subsequently the cells were placed in the stretch plates and were treated as described above.

[2] = tested on: SMα-actin, calponin and p27Kip1 protein; test: Western blotting of stretched venous SMCs; assay type: cell-based, human; conditions: 25 μM 6-MP
Description: Sodium dodecyl sulfate-polyacrylamide gel electrophoresis was performed with cell lysates (30 microg per lane) and concentrated culture media (equivalent of 200 microl per lane). Proteins were transferred to nitrocellulose-Protran (Schleicher and Schuell, 's-Hertogenbosch, The Netherlands).
Expression of p27^Kip1 (BD Biosciences, Alphen a/d Rijn, The Netherlands), p21^Cip1 (BD), SM alpha-actin (DAKO), PAI-1 (MAI-12; Biopool, Umea, Sweden), TR3 (M-210; Santa Cruz Biotechnology, Santa Cruz, Calif.), calponin (clone hCP; Sigma) and alpha-tubulin (Cedar Lane, Hornby, Ontario, Canada) was studied, using the indicated antibodies directed against these proteins. Primary antibodies were incubated overnight at 4° C. in 5% Protifar plus (Nutricia, Cuijk, The Netherlands) in TBS. As secondary antibodies, horseradish peroxidase-conjugated goat anti-rabbit (for p27^Kip1 and TR3 detection) or goat anti-mouse (for all others) (BioRad 11 Laboratories Inc., Hercules, Calif.) in a dilution of 1:5000 in TBS were used.
Proteins were visualized by enhanced chemiluminescence detection (Lumi-Light^PLUS; Roche Diagnostics GmbH, Mannheim, Germany). Quantitative analysis was performed by the Lumi-Imager (Boehringer Mannheim, Mannheim, Germany). alpha-Tubulin staining served as a control for loading.

Nur77 = target: T1, Nur77 (Homo sapiens, UniProt P22736); test: Nur77 reporter (NurRE) luciferase assay in Nur77-expressing SMCs; assay type: cell-based
T1 construct: expressed in transfected cells; host or cells: cultured human smooth muscle cells (SMCs), lentivirally transduced
T1 sequence (P22736 whole entry): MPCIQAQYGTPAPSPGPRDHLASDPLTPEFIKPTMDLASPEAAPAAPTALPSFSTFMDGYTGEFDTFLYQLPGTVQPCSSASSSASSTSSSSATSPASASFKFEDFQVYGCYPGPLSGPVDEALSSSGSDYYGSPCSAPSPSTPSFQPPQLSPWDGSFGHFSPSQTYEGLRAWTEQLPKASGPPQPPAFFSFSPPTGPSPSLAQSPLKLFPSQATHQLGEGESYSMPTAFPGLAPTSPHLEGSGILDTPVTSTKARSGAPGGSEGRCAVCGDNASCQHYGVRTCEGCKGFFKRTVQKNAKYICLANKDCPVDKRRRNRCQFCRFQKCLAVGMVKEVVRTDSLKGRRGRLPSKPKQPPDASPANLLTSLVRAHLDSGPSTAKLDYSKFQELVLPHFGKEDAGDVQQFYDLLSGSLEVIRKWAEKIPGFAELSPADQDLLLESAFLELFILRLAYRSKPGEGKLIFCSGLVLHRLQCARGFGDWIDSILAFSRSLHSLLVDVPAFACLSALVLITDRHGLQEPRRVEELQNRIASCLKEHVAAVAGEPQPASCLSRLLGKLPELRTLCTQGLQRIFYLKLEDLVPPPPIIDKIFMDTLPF
Description: Cells were electroporated using the Amaxa method(Amaxa, Germany) with nucleofector reagent for SMCs. In each transfection, 0.5−1.0×10^6 cells were used and 3.5 μg Nur77-reporter plasmid with 1.5 μg Renilla luciferase plasmid (containing the thymidine kinase promoter) to correct for cell number and transfection efficiency. The NUR77-reporter plasmid contained the Nur response element (NurRE) of the POMC-promoter in triplicate with the −34/+63 minimal promoter of POMC gene.^19 24 hours after transfection, cells were incubated with 6-MP (Sigma) for 24 hours and luciferase activity was assayed with the Dual luciferase reporter system (Promega, Madison, Wis.).
To investigate whether 6-MP increases Nur77 transcriptional activity in vascular cells, human SMCs were transduced with lentivirus encoding Nur77, resulting in expression in 85-90% of the infected cells and increased Nur77 mRNA levels compared to mock-infected SMCs (data not shown). […] Nur77-overexpressing SMCs were subsequently electroporated with the firefly luciferase reporter construct, containing the palindromic NurRE (Nur77 response element from the POMC-promoter) sequence (TGATATTTn6AAATGCCA) to monitor Nur77 transcriptional activity in combination with the thymidine kinase-renilla luciferase construct as a control for transfection efficiency.

human SMCs = test: Apoptosis of SMCs, Hoechst staining of nuclei; assay type: cell-based; conditions: human, 24 h
Description: Human SMCs were explanted from umbilical cord arteries. Cells were cultured in DMEM (Invitrogen Life Technology, Breda, The Netherlands) with 10% (v/v) fetal bovine serum (FBS) with penicillin and streptomycin (Invitrogen). Cells were used at passages five to seven. […] To determine cellular viability, cells were washed with PBS and subsequently incubated in medium in the presence of 0.5-mg/ml 3-(4,5-dimethylthiazol-2-yl)-2,5-diphenyltetrazolium bromide (MTT; Sigma Diagnostics, St. Louis). After two hours, medium was discarded, formazan crystals were dissolved in isopropanol and optical density was measured at 590 nm. Apoptosis was induced by incubating cells for 24 hours in medium with 0.25 μM staurosporine (Sigma). Subsequently, SMCs were fixed, stained with Hoechst dye and the relative number of apoptotic nuclei was determined.

[3] = In vitro release from drug-eluting poly(ε-caprolactone) cuffs; assay type: physicochemical; conditions: 0.5% and 1% cuffs, 4-week period
Description: Briefly, 6-MP was dissolved at different concentrations in blended, molten drug-polymer mix and cuffs were designed to fit around the femoral artery of mice. Drug-eluting cuffs are shaped as longitudinally cut cylinders with an internal diameter of 0.5 mm, an external diameter of 1.0 mm, a length of 2.0 mm and a weight of approximately 5.0 mg. Drug-eluting cuffs were loaded with 0.5% (w/w) and 1% (w/w) 6-MP and the in vitro release profiles were determined for a 4-week period, as described before (n=5/group).

SMILES: Sc1ncnc2nc[nH]c12 [6-MP, 6-mercaptopurine]
- effect on stretch-induced DNA synthesis after TR3 knockdown ([1]; venous SMCs transfected with TR3-siRNA): completely abolishes the effect of 6-MP; also recorded: no longer inhibits DNA synthesis
- stretch-induced DNA synthesis ([1]; venous SMCs, 24 h cyclic stretch, 25 μM 6-MP): completely inhibited
- stretch-induced DNA synthesis ([3H]-thymidine incorporation) ([1]; venous SMCs, 24 h cyclic stretch, 6-MP at various concentrations): reduced stretch-mediated proliferation in a dose-dependent manner
- SMα-actin and calponin as well as p27Kip1 protein expression [2]: increases
- increase in Nur77 activity (luciferase) (Nur77; 50 μM, 24 hours): 10 fold
- Nur77 transcriptional activity (Nur77; 24 hours in the presence of 6-MP): enhances Nur77 activity
- apoptosis (apoptotic nuclei) (human SMCs): 3%±2%
- in vitro release profile [3]: sustained and dose-dependent release
